# Species on record: Homo sapiens
# Experiment: Concentration required to inhibit collagen-induced platelet aggregation in human platelet rich plasma (PRP)
# Assay type: functional
row,Compound,IC50 [nM]
1,CC(C)(/C=C/C(O)c1ccc(C(=N)N)cc1)C(=O)N1CCC(CC(=O)O)CC1 (configuration not stated),7600
2,C#CCOC(/C=C/c1ccc(C(=N)N)cc1)C(C)(C)C(=O)N1CCC(CC(=O)O)CC1 (configuration not stated),270
3,COC(/C=C/c1ccc(C(=N)N)cc1)C(C)(C)C(=O)N1CCC(CC(=O)O)CC1 (configuration not stated),250
4,CC(C)(C(=O)/C=C/c1ccc(C(=N)N)cc1)C(=O)N1CCC(CC(=O)O)CC1,3500
5,CC(C)(/C=C/C(=O)c1ccc(C(=N)N)cc1)C(=O)N1CCC(CC(=O)O)CC1,210
6,CC(C)(CCC(=O)c1ccc(C(=N)N)cc1)C(=O)N1CCC(CC(=O)O)CC1,630
7,CCCCCCOC(/C=C/c1ccc(C(=N)N)cc1)C(C)(C)C(=O)N1CCC(CC(=O)O)CC1 (configuration not stated),1600
8,CC(C)(C(=O)N1CCC(CC(=O)O)CC1)/C(O)=C/C(=O)c1ccc(C(=N)N)cc1,600000
9,CCOC(/C=C/c1ccc(C(=N)N)cc1)C(C)(C)C(=O)N1CCC(CC(=O)O)CC1 (configuration not stated),260
10,COC(CCc1ccc(C(=N)N)cc1)C(C)(C)C(=O)N1CCC(CC(=O)O)CC1 (configuration not stated),480
11,CC(C)(C(=O)N1CCC(CC(=O)O)CC1)C(/C=C/c1ccc(C(=N)N)cc1)OCc1ccccc1 (configuration not stated),730
12,CC(C)(C(=O)N1CCC(CC(=O)O)CC1)C(O)/C=C/c1ccc(C(=N)N)cc1 (configuration not stated),600

# From ChEMBL document CHEMBL1151587, “Development of new non-peptide GPIIb/IIIa antagonists, NSL-95315 and NSL-95317, isosteres of NSL-95300” (Bioorg Med Chem Lett, 1997)
